Converted amounts (≈) assume the structure as drawn. Read-outs that look alike come from different tables or passages of the source.
How the values were obtained:
[1] = system: NCI H69 cells; assay: CellTiter-Glo cell viability assay (cytotoxicity), 8 days; type: cell-based; conditions: Homo sapiens, 192 h, full growth media
Method: The experiment tested pentamidine, Compounds 1-6 in full growth media for 8 days. NCI H69 cells were initially treated with the test compounds on Day 0, and the cells were then replenished with fresh compound dilutions on Day 3. Pentamidine and Compound 1 were tested at 9 concentration points: 100 μM, 33.33 μM, 11.11 μM, 3.70 μM, 1.23 μM, […], 0.05 μM, and 0.02 μM (final DMSO concentration=0.5%). The raw data values from the CellTiter-Glo™ cell viability assay expressed in relative luminescence units were normalized to the vehicle for each individual plate, and any reduction in luminescence indicated a decrease in viability (%). The data was analyzed in GraphPad PRISM using a non-linear sigmoidal plot with variable slope (asymmetric four-point […]), and an IC50 value for each compound was generated based on the normalized dose-response curves and shown in Table 1.

[2] = system: K. pneumoniae; assay: Checkerboard assay with rifampicin (FIG. 1); type: cell-based, Klebsiella pneumoniae
From the text: As control, pentamidine was used for its synergistic, indifferent or antagonistic interaction with rifampicin in similar conditions. […] In FIG. 1, dark wells indicated growth inhibition of K. pneumoniae and corresponding antibacterial activities of these compounds.

[3] = system: A. baumannii ATCC 17978; assay: Checkerboard assay with novobiocin (FIGS. 2, 3, 5, 6); type: cell-based, Acinetobacter baumannii
From the text: Novobiocin is an anti-staphylococcal drug, but with limited use. The oral form of novobiocin drug has since been withdrawn from the market due to lack of efficacy. This antibiotic is often used to treat Staphylococcus aureus infection, particularly methicillin resistant S. aureus “MRSA”.

[4] = system: S. aureus ATCC 27660; assay: MIC assay against gram positive S. aureus; type: cell-based; conditions: Staphylococcus aureus, ATCC27660
Method: (§1) Then the compound stocks were serially 2-fold diluted in a v-bottom 96-well plate to make 100-fold working solutions. One day before the test, −80° C. glycerol stock of S. aureus strains were streaked on cation-adjusted Mueller-Hinton agar (CAMHA) plates. On the day of test, fresh bacterial colonies were suspended into sterile saline to an OD600 nm of ˜0.1 (equivalent to 0.5 McFarland). The bacterial suspension was firstly 20-fold followed by 50-fold diluted in cation-adjusted Mueller-Hinton broth (CAMHB) plates to 1×10^6 CFU/PO. 198 ul of the inoculum was added into the round-bottom 96-well plates prefilled with 2 ul of 100-fold compound working solutions. After incubating at 35 +/−2° C. in ambient atmosphere for 18-24 h, MIC was recorded as the lowest concentration under which no visible bacterial growth was observed.

[5] = system: S. aureus ATCC 43300; assay: MIC assay against gram positive S. aureus; type: cell-based; conditions: Staphylococcus aureus, ATCC43300
Method: as §1

[6] = system: Aspergillus fumigatus AF2; assay: Anti-fungal MIC assay; type: cell-based
Method: (§2) The first round of testing included Candida parapsilosis, Candida krusei, Paecilomyces variotii, Candida albicans, Aspergillus fumigatus, and Blastomyces dermatitidis. […] The second round of testing included Candida parapsilosis, Candida krusei, Candida albicans, Candida auris, Candida glabrata, Candida guilliermondii, and Cryptococcus neoformans.
(§3) Stock solutions of the investigational agent were prepared at concentrations 100-times the highest concentration to be tested (6400 μg/ml) using dimethyl sulfoxide. Aliquots of the stock solutions were dispensed into polystyrene vials and stored at −20° C.
(§4) The synthetic medium RPMI-1640 (with glutamine, without bicarbonate, and with phenol red) was used. The RPMI was buffered to a pH of 7.0+0.1 at 25° C. with 0.165M MOPS (3-[N-morpholino] propanesulfonic acid). Sterile U-shaped 96-well cell culture plates were used to perform the MIC assays. Dilutions of the DMSO stocks were prepared in RPMI to achieve 2× concentrations. After the dilutions of the working 2× investigational antifungal solutions were prepared, 0.1 ml of each concentration was transferred into a pre-specified column of the U-shaped 96-well cell culture plate using sterile pipettes.
(§5) Fungal isolates were grown on Sabouraud dextrose agar (yeasts) or potato flake agar (filamentous fungi) and cells were collected after an appropriate period of growth for each species being evaluated (e.g., 48-72 hours for yeasts and 7 days for filamentous fungi). The fungi were suspended in sterile distilled water, and the densities of the fungal suspension were read using a spectrophotometer and adjusted to an appropriate optical density specific for each fungal species. The fungal suspension of each isolate was then diluted in RPMI. A sufficient volume of the test inoculum was prepared to directly inoculate 0.1 ml into each test well of the 96-well cell culture plate. Final inoculum ranges were dependent on the fungal species to be tested (e.g., 0.4×103 to 5×10^3 cells/ml for yeasts and dimorphic fungi, and 0.4×104 to 5×10^4 cells/ml for filamentous fungi). Each well of the 96-well cell culture plate containing the investigational antifungal compounds (0.1 ml volume) was inoculated on the day of the assay with 0.1 ml of the fungal suspension. Growth control wells contained 0.1 ml of fungal suspension and 0.1 ml of the growth medium without antifungal agents. The media control well contained 0.2 ml of the growth medium.
(§6) The microdilution trays were incubated at 35° C. without agitation. […] One positive comparator/control was used for yeast (fluconazole) and one was used for filamentous fungi (voriconazole).

[7] = system: Candida albicans 43001; assay: Anti-fungal MIC assay; type: cell-based
Method: as §2, §3, §4, §5, §6

[8] = system: Candida guilliermondii Cgui1; assay: Anti-fungal MIC assay; type: cell-based; conditions: Meyerozyma guilliermondii
Method: as §2, §3, §4, §5, §6

[9] = system: Candida parapsilosis ATCC22019; assay: Anti-fungal MIC assay; type: cell-based; conditions: Lodderomyces parapsilosis
Method: as §2, §3, §4, §5, §6

[10] = system: Candida parapsilosis CP2; assay: Anti-fungal MIC assay; type: cell-based; conditions: Lodderomyces parapsilosis
Method: as §2, §3, §4, §5, §6

[11] = system: Candida parapsilosis CP3; assay: Anti-fungal MIC assay; type: cell-based; conditions: Lodderomyces parapsilosis
Method: as §2, §3, §4, §5, §6

[12] = system: Cryptococcus neoformans H99; assay: Anti-fungal MIC assay; type: cell-based
Method: as §2, §3, §4, §5, §6

[13] = Anti-fungal MIC assay, summary of second round; type: cell-based; conditions: read-out: Isolate MIC (100%); range over isolates of the second round of testing
Method: as §2, §3
(§7) The synthetic medium RPMI-1640 (with glutamine, without bicarbonate, and with phenol red) was used. The RPMI was buffered to a pH of 7.0+0.1 at 25° C. with 0.165M MOPS (3-[N-morpholino] propanesulfonic acid). Sterile U-shaped 96-well cell culture plates were used to perform the MIC assays. […]
(§8) Fungal isolates were grown on Sabouraud dextrose agar (yeasts) or potato flake agar (filamentous fungi) and cells were collected after an appropriate period of growth for each species being evaluated (e.g., 48-72 hours for yeasts and 7 days for filamentous fungi). The fungi were suspended in sterile distilled water, and the densities of the fungal suspension were read using a spectrophotometer and adjusted to an appropriate optical density specific for each fungal species. […]

[14] = system: Candida parapsilosis, Candida krusei, Candida albicans, Candida auris, Candida glabrata, Candida guilliermondii, and Cryptococcus neoformans; assay: Anti-fungal MIC assay, summary of second round; type: cell-based; conditions: Candida strains
Method: as §2, §3, §7, §8

[15] = read-out: MIC, 50% growth inhibition
[16] = read-out: MIC, 100% growth inhibition

N=C(N)c1ccc(CC[C@H]2CCC[C@@H](CCc3ccc(C(=N)N)cc3)C2)cc1 [Compound 3, 4,4′-(2,2′-((1R,3S)-cyclohexane-1,3-diyl)bis(ethane-2,1-diyl))dibenzimidamide]
IC50 [1]: 0.8 µM | synergistic effect with rifampicin, growth inhibition, compared to pentamidine [2]: superior synergistic effects with rifampicin than pentamidine with rifampicin | synergistic effect with novobiocin [3]: clear synergistic effect | synergy with novobiocin as compared to pentamidine with novobiocin [3]: superior synergy | MIC ([3]; Acinetobacter baumannii, ATCC17978, substance alone): 33.2 µM | MIC [4]: 0.5 µg/mL (≈ 1.33 µM) | MIC [5]: 0.5 µg/mL (≈ 1.33 µM) | MIC [6, 15]: 32 µg/mL (≈ 85 µM) | MIC [6, 16]: 32 µg/mL (≈ 85 µM) | MIC [7, 15]: 0.25 µg/mL (≈ 0.664 µM) | MIC [7, 16]: 0.5 µg/mL (≈ 1.33 µM) | MIC [8, 15]: 1 µg/mL (≈ 2.66 µM) | MIC [8, 16]: 1 µg/mL (≈ 2.66 µM) | MIC ([9]; ATCC22019, C. parapsilosis ATCC 22019, second round (Table 6), read-out: MIC, 50% growth inhibition): 0.25 µg/mL (≈ 0.664 µM) | MIC ([9]; ATCC22019, Candida parapsilosis ATCC22019, first round (Table 5), read-out: MIC, 50% growth inhibition): 0.5 µg/mL (≈ 1.33 µM) | MIC ([9]; ATCC22019, read-out: MIC, 100% growth inhibition, C. parapsilosis ATCC 22019, second round (Table 6)): 0.5 µg/mL (≈ 1.33 µM) | MIC ([9]; ATCC22019, read-out: MIC, 100% growth inhibition, Candida parapsilosis ATCC22019, first round (Table 5)): 1 µg/mL (≈ 2.66 µM) | MIC [10, 15]: 1 µg/mL (≈ 2.66 µM) | MIC [10, 16]: 4 µg/mL (≈ 10.6 µM) | MIC [11, 15]: 2 µg/mL (≈ 5.31 µM) | MIC [11, 16]: 8 µg/mL (≈ 21.2 µM) | MIC [12, 15]: 0.5 µg/mL (≈ 1.33 µM) | MIC [12, 16]: 0.5 µg/mL (≈ 1.33 µM) | MIC [13]: 0.5 to 8 µg/mL (≈ 1.33 to 21.2 µM) | anti-fungal effectiveness compared to fluconazole [14]: more effective in killing several Candida strains of interest that are not affected by fluconazole
